Experiments:
[1] = Acute oral toxicity test in rats; conditions: SD, rat, in vivo, single oral dose, suspended in 0.5% methyl cellulose, read-out: lethal dose (LD50) for oral administration
Procedure, shortened: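 Six-week-old SPF SD rats, two per group, received compounds orally as suspensions in 0.5% methyl cellulose. Endpoints were clinical signs, body weight, mortality, haematology, serum biochemistry and macroscopic necropsy of organs and tissues.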

[2] = test system: cortical neuron cells; test: Protective effect on iron-induced neuronal cell injury (LDH release); assay type: cell-based; conditions: FeSO4 50 μM; for protective effect on neuron cell: Inhibition (%, 30 μM compound addition): LDH reduction vs control; for IC50: LDH
Procedure, shortened: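 Embryonic (day 17–18) cortical neurons cultured 7–9 days, serum lowered to 0.2%, pretreated 30 min with compound (DMSO ≤0.1%), then exposed to 50 μM FeSO4 for 24 h. LDH released to medium measured; protection expressed as LDH reduction versus vehicle control.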

[3] = test system: RAW 264.7 cells; test: Inhibitory effect on NO production (LPS, Griess reagent); assay type: cell-based, murine; conditions: Mus musculus, RAW264.7, 24 h, Addition 30 μM, LPS 1 μg/ml, read-out: Inihibition (%) of NO production
Protocol: Using RPMI1640 media supplemented with 10% fetal bovine serum (FBS), RAW 264.7 cells (obtained from American Type Culture Collection), a murine macrophage cell line, were cultured at 37° C. in a 5% CO2 incubator. The RAW 264.7 cells were harvested and cell density was adjusted to 5×10^5 cell/ml with a RPMI media supplemented with 0.5% FBS and plated at 5×10^4 cell/well to 96-well plate, which were then cultured for 20 hours in a CO2 incubator. After removal of the media, the cells were pre-treated for 1 hour with fresh media containing 30 μM. The test compounds were dissolved in DMSO and diluted to respective concentration in the media. In order to minimize DMSO effect on the nitric oxide formation by the RAW 264.7 cells in the walls, the media were allowed to contain DMSO at a concentration of 0.1% or less.
After completion of one-hour pre-treatment, Lipopolysaccharide (E. coli serotype 055:B5) was added to activate the cells at a final concentration of 1 μg/ml, which were maintained for 24 hours in a CO2 incubator. As a result of the activation of RAW 264.7 cells with LPS, NO was formed. The NO release into the media was in a form of nitrite (NO2^−) and quantitatively measured using the Griess reagent. A control group was treated only with vehicle instead of test compounds.
The inhibitory effect of the test compounds against NO production were determined as the reduction of NO quantity compared with that of the control group.

[4] = test system: brain homogenate; test: Inhibitory effect against lipid peroxidation by iron (MDA quantification); assay type: biochemical, rat; conditions: 100 μM compound, FeCl2 400 μM, 37° C. 30 min
Protocol: The rat brain was homogenized in a Krebs buffer (15 mM HEPES, 10 mM glucose, 140 mM NaCl, 3.6 mM KCl, 1.5 mM CaCl2, 1.4 mM KH2PO4, 0.7 mM MgCl2, PH 7.4) and the supernatant separated by centrifugation at 12,000 rpm for 10 min was used for further experiments. FeCl2 was added for the final concentration to be 400 μM. Then the brain homogenate was allowed to stand at 37° C. for 30 min for the facilitation of oxidation. Each of the test compounds was added at a concentration of 100 μM. For control group, only vehicle was applied.
Iron facilitates the oxidation of the said brain homogenate to produce malondialdehyde (MDA), lipid peroxidation product. Thus, the lipid peroxidation was determined by MDA quantification. The inhibitory effect against lipid peroxidation of the test compounds was evaluated by calculating MDA reduction rate of the test compounds compared with that of the control group.
Typically, the MDA quantification is achieved by reacting samples with 2-thiobarbituric acid (TBA) and measuring the absorbance at 530 nm. However, this method is unsuitable to treat samples on a large scale because of a boiling step. Thus, in this experiment, N-methyl-2-phenylindole was used instead of TBA.

[5] = test system: HUVEC (Human Umbilical Vein Endothelial Cell); test: Inhibitory effect against HUVEC tube formation; assay type: cell-based; parameters: key: −: no effect; +/−: slight effect; +: medium effect; ++: strong effect
Protocol: HUVEC (Human Umbilical Vein Endothelial Cell) were cultured, and tubulogenesis (tube formation) was induced in vascular endothelial cells by plating them onto the surface of Matrigel for several hours. The effect on tube formation of the test compounds were compared with the vehicle-treated control group, then confirmed their in-vitro anti-angiogenic effect indirectly.

[6] = test system: isolated rat aorta; test: Vasodilating effect on blood vessel excised from rats (methoxamine-constricted aorta); conditions: isolated rat aorta constricted with methoxamine (3 μM); read-out: Concentration for inhibition of constriction induced by methoxamine in rat arota (IC50)
Procedure, shortened: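 Endothelium-denuded rat thoracic aortic rings (3 mm) in Krebs-Henseleit buffer, 37 °C, carbogen, 2 g resting tension, primed twice with 10^−5 M phenylephrine. After maximal contraction with 3×10^−6 M methoxamine, compounds added cumulatively at 1, 3, 10, 30 μM. IC50 = concentration giving 50% relaxation of maximal constriction, by linear regression.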

[7] = test system: Low density lipoprotein of human (human LDL); test: Inhibitory effect against lipid peroxidation induced by copper (LDL oxidation, MDA); assay type: biochemical; conditions: CuSO4 10 μM, 37° C. 18 hours
Protocol: Low density lipoprotein of human (human LDL, sigma) was dissolved in water to be final concentration of 1 mg/ml. To remove EDTA (ethylenediamine tetraacetate), the aqueous solution was dialyzed in phosphate buffer at 4° C. for 18 hours. At this dialysis, phosphate buffer was changed three times. Phosphate buffer was added to LDL (100 μg LDL protein/ml) which EDTA was removed from the aqueous solution, additionally thereto CuSO4 10 μM as oxidant was added. […] Group to which CUSO4 was not added was used as blank group. Group to which CUSO4 and vehicle were added in place of test compounds was used as control group. The mixture was incubated at 37° C. for 18 hours. EDTA […] was added to the mixture to terminate the oxidation reaction.
As shown in example 4, Cu^2+ facilitates the oxidation reaction to produce malondialdehyde (MDA), lipid peroxidation product. The MDA quantification is achieved by reacting samples with 2-thiobarbituric acid (TBA) and measuring the absorbance at 530 nm. Also, 1,1,3,3-tetramethoxypropane purchased from sigma was used as standard materials. Inhibitory effect against lipid peroxidation of the test compounds was measured by MDA (nmol) to protein (mg). Decrease of MDA to that of control group was calculated.

[8] = test system: cortical neuron cells; test: Protective effect on hydrogen peroxide induced neuronal cell injury; assay type: cell-based; conditions: hydrogen peroxide 30 μM
[9] = test system: A7r5 (Rat thoracic aorta smooth muscle cell line, ATCC); test: Inhibitory effect on accumulation of reactive oxygen species induced by hydrogen peroxide (DCF fluorescence); assay type: cell-based; conditions: hydrogen peroxide 50 μM
Protocol: To measure reactive oxygen species, H2DCFDA (2′,7′-dichlorodihydrofluorescein diacetate, Molecular Probes, Eugene, Oreg., USA) was used. If H2DCFDA, nonpolar material is transferred through cell membrane, it is changed to H2DCF (2′,7′-dichlorodihydrofluorescein), material impermeable to membrane by intracellular esterase. H2DCF is changed to high fluorescent DCF (2′,7′-dichlorofluorescein) by low fluorescent peroxidated oxygen or hydroxyl radical. H2DCFDA solution (10 mM) dissolved in DMSO was used before the experiment. A7r5 (Rat thoracic aorta smooth muscle cell line, ATCC), as smooth muscle cell was incubated in DMEM (Dulbecco's Modified Eagle's Medium) containing 10% of FBS (fetal bovine serum). Thereafter, the cell was incubated in 48 well plate for two days, then was incubated in serum-free DMEM for 24 hours to use for experiment. Krebs-linger buffer (Krebs-Ringer (K-R), 99.01 mM NaCl, 4.69 mM KCl, 1.87 mM CaCl2, 1.2 mM MgSO4, 1.03 mM K2HPO4, 25 mM NaHCO3, 20 mM Hepes, 11.1 mM D-glucose, pH 7.4) was used for washing and process of cell monolayers. After cell monolayers media was removed, each of test compounds (0.2 ml) was pre-treated to media, then incubated at 37° C. for 15 min. Final concentration was 50 μM, hydrogen peroxide was added. The media was allowed to stand for 30 min. The said solution from media was removed. The media was washed one time. H2DCFDA 20 μM was added to the media. The media was allowed to stand for 30 min. the media was washed two times. Thereafter, oxidation of H2DCFDA was measured by Fluorescence reader (FL600, Biotech Instruments, 485 nm excitation, 530 nm emission).

[10] = test system: isolated ischemic rat heart; test: Cardioprotective effect in ischemic heart models of rats (Langendorff); conditions: 10 μM
Procedure, shortened: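 Langendorff-perfused male rat hearts (Krebs-Henseleit, 85 mmHg, 37 °C) pretreated 10 min with compound or vehicle (0.04% DMSO), then 30 min global ischemia and 30 min reperfusion. Read-outs: LVDP, HR, CF, rate-pressure product, time to contracture (first 5 mmHg EDP rise), LDH release.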

## COC(OC)[C@@]1(C)Oc2ccc([N+](=O)[O-])cc2[C@H](N(Cc2nnn(C)n2)c2ccccc2O)[C@H]1O [Example 60, (2S,3R,4S)-6-nitro-4-[N-(2-hydroxyphenyl)-N-(2-methyl-2H-tetrazol-5-ylmethyl)amino]-3-hydroxy-2-methyl-2-dimethoxymethyl-3,4-dihydro-2H-1-benzopyran]
[1]
  LD50: > 2000 mg/kg
[2]; 24 hours
  protective effect on neuron cell: Inhibition (%, 30 μM compound addition): 87%
  IC50: 700 nM
[2]; Cortical neurone, 24 h
  IC50: < 1000 nM
[3]
  inhibition at 30 µM: > 75%
[4]
  inhibitory effect against lipid peroxidation induced by iron (%, 100 μM): 85%

## COC(OC)[C@@]1(C)Oc2ccc(N)cc2[C@H](N(Cc2nnn(C)n2)c2ccc(C)cc2)[C@H]1O [Example 28, (2S,3R,4S)-6-amino-4-[N-(4-methylphenyl)-N-(2-methyl-2H-tetrazol-5-ylmethyl)amino]-3-hydroxy-2-methyl-2-dimethoxymethyl-3,4-dihydro-2H-1-benzopyran]
[5]; 10 μM
  Tube formation (inhibitory effect): +/−
[5]; 100 μM
  Tube formation (inhibitory effect): +
[1]
  LD50: > 2000 mg/kg
[2]; 24 hours
  protective effect on neuron cell: Inhibition (%, 30 μM compound addition): 103%
[2]; Cortical neurone, 24 h
  IC50: 4100 nM
[6]
  IC50: > 30000 nM
[4]
  inhibitory effect against lipid peroxidation induced by iron (%, 100 μM): 83%

## CC(C)(Sc1cc(C(C)(C)C)c(O)c(C(C)(C)C)c1)Sc1cc(C(C)(C)C)c(O)c(C(C)(C)C)c1 [Probucol]
[7]; Addition 10^−5 M
  Inhibitory effect(%) against lipid peroxidation induced by copper: 66.7%
[7]; Addition 10^−6 M
  Inhibitory effect(%) against lipid peroxidation induced by copper: 58.7%
[7]; Addition 10^−7 M
  Inhibitory effect(%) against lipid peroxidation induced by copper: 33.7%

## CCCOC(=O)c1cc(O)c(O)c(O)c1 [Propyl gallate, reference compound]
[8]; Addition 10 μM
  Inhibition(%) of hydrogen peroxide induced neuronal cell injury: 94%
[9]; addition 3 μM
  Inhibitory(%) against reactive oxygen species accumulation: 57%
[9]; addition 10 μM
  Inhibitory(%) against reactive oxygen species accumulation: 94%
[9]; addition 30 μM
  Inhibitory(%) against reactive oxygen species accumulation: 108%

## CC(CN1c2ccccc2Sc2ccccc21)N(C)C (stereo not shown) [Promethazine]
[8]; Addition 5 μM
  Inhibition(%) of hydrogen peroxide induced neuronal cell injury: 97%

## COC(OC)[C@@]1(C)Oc2ccc([N+](=O)[O-])cc2[C@H](N(Cc2nnn(C)n2)c2ccc(Cl)cc2)[C@H]1O [Example 2, (2S,3R,4S)-6-nitro-4-[N-(4-chlorophenyl)-N-(2-methyl-2H-tetrazol-5-ylmethyl)amino]-3-hydroxy-2-methyl-2-dimethoxymethyl-3,4-dihydro-2H-1-benzopyran]
[5]; 10 μM
  Tube formation (inhibitory effect): +
[5]; 100 μM
  Tube formation (inhibitory effect): ++

## CC1(C)Oc2ccc(C#N)cc2[C@@H](NC(=NC#N)Nc2ccc(Cl)cc2)[C@@H]1O [BMS-180448, reference compound]
[8]; Addition 30 μM
  Inhibition(%) of hydrogen peroxide induced neuronal cell injury: −5%
[6]
  IC50: 1380 nM
[10]; after 30 min global ischemia and reperfusion
  EDP (mmHg): 16.5 mmHg
[10]; reperfusion LDH release
  LDH (u/g): 17.2 u/g
[10]; reperfusion, % of pre-treatment DP
  LVDP X HR (%): 67.6%
[10]; time to contracture during global ischemia
  TTC: 27.8 min

## tocopherol
[7]; Addition 10^−5 M
  Inhibitory effect(%) against lipid peroxidation induced by copper: 29.7%
[7]; Addition 10^−7 M
  Inhibitory effect(%) against lipid peroxidation induced by copper: 21.3%

From US7414068B2, “Benzopyran derivatives substituted with secondary amines including tetrazole, method for the preparation thereof and pharmaceutical compositions containing them” (Dongbu Hannong Chemical Co., Ltd., priority 2002, dated 2008)
